Entries after “also recorded” stand apart in the source; their conditions may differ. Read-outs that look alike come from different tables or passages of the source.
Legend:
convulsions = settings: WO 95/18617 and WO 96/21640; cited from earlier work
[1] = tested on: tonic hind limb extensions (maximal electroshock), mouse; assay: maximal electroshock (MES) test in mouse, suppression of tonic hind limb extensions; format: in vivo; settings: for ED50: po, 1 h, read-out: ED50 MES
[2] = horizontal screen test in mouse (impaired motor function, neurotoxicity; therapeutic index); format: in vivo; settings: po, mouse
Procedure: (§1) In this model mice are placed individually on top of a squire wire screen which is mounted horizontally on a metal rod, which is then rotated 180° so that mice are on the bottom of the screens. Impairment of the motor function is observed from the number of animals that falls from the screen or fail to climb to the top of the screens. The medial neurological toxic dose (TD50) is than calculated as above. The ratio of TD50 and ED50 refers to the therapeutic index (T.I.) for each compound. The T.I. is used to show a useful separation between neurotoxicity and antiepileptic activity. The larger the T.I. would indicate a better separation between the above activities and a good profile as anticonvulsants.

motor function, mouse = assay: as above; format: in vivo; settings: for T.I. (therapeutic index): ratio of TD50 (horizontal screen) and ED50 (MES), mouse p.o.; for T.I. (in words) / neurotoxicity / impairment of motor coordination (in words): mouse; for T.I. (in words): TD50/ED50; for neurotoxicity / impairment of motor coordination (in words): p.o., horizontal screen
Procedure: as §1

[3] = tested on: tonic hind limb extensions (maximal electroshock), rat; assay: maximal electroshock (MES) test in rat, incl. time course of anticonvulsant activity; format: in vivo; settings: for Duration of action (time at which the protection is statistically significant) / Peak of activity (time of the maximal effect): MES, equiactive dose; for Duration of action (time at which the protection is statistically significant) / Peak of activity (time of the maximal effect) / ED50 / anticonvulsant activity in rat MES (in words): rat; for Duration of action (time at which the protection is statistically significant) / Peak of activity (time of the maximal effect) / anticonvulsant activity in rat MES (in words): p.o.; for ED50: po
Procedure: The compounds of the invention were evaluated in some pharmacological tests in order to investigate their potential anticonvulsant activity. To this end, compounds were screened in the maximal electroshock (MES) test. This model is widely used to assess the efficacy of antiepileptic agents against generalized and partial seizures. This study was performed in both rat and mouse by using the experimental procedure described in W. Losher et al., Epilepsy Res., 2 (1988), 145-181. Briefly, a 60 Hz alternate current (mice 50 mA, rats 150 mA) was delivered for 0.2 sec through corneal electrods by means of an electrical stimulator. […] Groups of 10 animals per dose were used and the ED50 was calculated from the dose-effect curve accordingly to Litchfield and Wilcoxon (J. Pharmacol. Exp. Ther., 96 (1949), 99-113).
In the rat MES model only the time course of anticonvulsant activity was evaluated. Groups of 10 rats were treated at their equiactive dose 30, 60, 120, 240, 360 and 480 min before the establishment of the electroshock. The peak of anticonvulsant activity and the duration of action were then evaluated.

[4] = tested on: tonic convulsions induced by bicuculline, mouse; assay: bicuculline-induced tonic convulsions in mouse; format: in vivo; settings: for anticonvulsant activity against bicuculline (in words): p.o.; for ED50: po, bicuculline s.c.
Procedure: Further to the MES test in mouse, some compounds were also evaluated in the MES test in rat and in a chemical model of tonic convulsions induced by bicuculline accordingly to the procedure described in Swinyard E. A. et al., Antiepileptic Drugs, 3rd Edition, Raven Press, New York (1989).
As reference compound FCE 26743 (S)-2-(4-(3-fluorobenzyloxy)benzylamino)propanamide was used, disclosed in the prior art in EP-B1-0400495.

[5] = tested on: electro-shock convulsions, mouse; settings: claimed in WO 94/22808; cited from earlier work
[6] = in vivo; cited from earlier work
[7] = mouse, p.o., 60 min after administration, HCl salts
[8] = horizontal screen test, p.o., HCl salts, read-out: TD50 Horizontal screen
[9] = in vivo, p.o., HCl salts, read-out: TD50 Horizontal screen

Structure (SMILES): NC(=O)CNC1CCc2ccccc21 (racemic) [racemic N-(2-acetamido)-1-aminoindan, N-(2-acetamido)-1-aminoindan]
- anticonvulsant activity (in words) (convulsions): not very effective
- therapeutic index (in words) (convulsions): don't seem endowed with a particularly favorable therapeutic index

Structure (SMILES): NC(=O)[C@@H](CO)N[C@H]1CCc2ccccc2C1 [CHF 2983, 3-hydroxy-2-(R)-(1,2,3,4-tetrahydro-naphthalen-2-(S)ylamino)propanamide]
- anticonvulsant activity / potency in MES (in words) ([1]; mouse, p.o.): A good profile of anticonvulsant activity
- ED50 [1, 7]: 43 mg/kg
- TD50 [2, 8]: 1300 mg/kg
- T.I. (therapeutic index) (motor function, mouse): 30
- Duration of action (time at which the protection is statistically significant) [3]: 2 h
- Peak of activity (time of the maximal effect) [3]: 1 h
- ED50 [3]: 19 mg/kg
- anticonvulsant activity in rat MES (in words) [3]: more potent
- anticonvulsant activity against bicuculline (in words) [4]: in the same order of potency of their MES anticonvulsant activity
- ED50 [4]: 62 mg/kg

Structure (SMILES): NC(=O)[C@H](CO)N[C@@H]1CCc2ccccc2C1 [CHF 2991]
- anticonvulsant activity / potency in MES (in words) ([1]; mouse, p.o.): A good profile of anticonvulsant activity
- ED50 [1, 7]: 38 mg/kg
- TD50 [2, 8]: 1100 mg/kg
- T.I. (therapeutic index) (motor function, mouse): 29

Structure (SMILES): Cl.NC(=O)[C@H](CO)NC1Cc2ccccc2C1 [CHF 2993, (S)-3-hydroxy-2-(2-indanylamino)propanamide hydrochloride]
- anticonvulsant activity / potency in MES (in words) ([1]; mouse, p.o.): equipotent in the MES test
- ED50 [1, 7]: 44 mg/kg
- TD50 [2, 9]: 1170 mg/kg
- T.I. (therapeutic index) (motor function, mouse): 27
- duration of action (in words) ([3]; MES time course): longest duration of action
- Duration of action (time at which the protection is statistically significant) [3]: 6 h
- Peak of activity (time of the maximal effect) [3]: 3 h
- ED50 [3]: 31 mg/kg
- anticonvulsant activity in rat MES (in words) [3]: anticonvulsant activity close to that found in the same model in mouse
- anticonvulsant activity against bicuculline (in words) [4]: in the same order of potency of their MES anticonvulsant activity
- ED50 [4]: 65 mg/kg

Structure (SMILES): NC(=O)[C@@H](CO)NC1Cc2ccccc2C1 [CHF 2996]
- anticonvulsant activity / potency in MES (in words) ([1]; mouse, p.o.): equipotent in the MES test
- ED50 [1, 7]: 34 mg/kg
- TD50 [2, 8]: > 1500 mg/kg
- T.I. (in words) (motor function, mouse): higher T.I.
- neurotoxicity / impairment of motor coordination (in words) (motor function, mouse): low value of neurotoxicity
- T.I. (therapeutic index) (motor function, mouse): 44
- Duration of action (time at which the protection is statistically significant) [3]: 2 h
- Peak of activity (time of the maximal effect) [3]: 1 h
- ED50 [3]: 32 mg/kg
- anticonvulsant activity in rat MES (in words) [3]: anticonvulsant activity close to that found in the same model in mouse

Structure (SMILES): Cl.NC(=O)CNC1Cc2ccccc2C1 [CHF 3381, 2-(2-indanylamino)acetamide hydrochloride]
- ED50 ([1]; Mus musculus): 21 mg/kg
- anticonvulsant activity / potency in MES (in words) ([1]; mouse, p.o., hydrochloride): more potent in inhibiting MES; also recorded: more potent as an anticonvulsant than the 1-aminoindane of the prior art
- TD50 [2, 9]: 274 mg/kg
- T.I. (in words) (motor function, mouse): higher T.I. than the prior art 1-aminoindane compound 2
- neurotoxicity / impairment of motor coordination (in words) (motor function, mouse): more neurotoxic
- T.I. (therapeutic index) (motor function, mouse): 13

Structure (SMILES): C[C@H](NC1Cc2ccccc2C1)C(N)=O [CHF 3431, (S) 2-(2-indanylamino)propionamide]
- anticonvulsant activity / potency in MES (in words) ([1]; mouse, p.o.): more potent in inhibiting MES
- ED50 [1, 7]: 22 mg/kg
- TD50 [2, 8]: 251 mg/kg
- neurotoxicity / impairment of motor coordination (in words) (motor function, mouse): more neurotoxic
- T.I. (therapeutic index) (motor function, mouse): 11

Structure (SMILES): CN(C1Cc2ccccc2C1)[C@H](CO)C(N)=O.Cl [CHF 3440, (R)-3-hydroxy-2-(N-methyl-2-indanylamino)propanamide hydrochloride]
- anticonvulsant activity / potency in MES (in words) ([1]; mouse, p.o.): same anticonvulsant activity
- ED50 [1, 7]: 35 mg/kg
- TD50 [2, 9]: 689 mg/kg
- neurotoxicity / impairment of motor coordination (in words) (motor function, mouse): increase of the neurotoxicity
- T.I. (therapeutic index) (motor function, mouse): 20

Structure (SMILES): C[C@H](NCc1ccc(OCc2cccc(F)c2)cc1)C(N)=O [FCE 26743, (S)-2-(4-(3-fluorobenzyloxy)benzylamino)propanamide, reference compound]
- Duration of action (time at which the protection is statistically significant) [3]: 1 h
- Peak of activity (time of the maximal effect) [3]: 0.5 h
- ED50 [3]: 11 mg/kg
- anticonvulsant activity in rat MES (in words) [3]: anticonvulsant activity close to that found in the same model in mouse
- anticonvulsant activity against bicuculline (in words) [4]: in the same order of potency of their MES anticonvulsant activity
- ED50 [4]: 20 mg/kg

Structure (SMILES): CS(=O)(=O)O.NC(=O)C(CO)NCc1ccc(OCCCc2ccccc2)cc1 (stereo not shown) [FCE 28245, 3-hydroxy-2-(4-(3-phenylpropyloxy)benzylamino)propanamide methanesulphonate, reference compound]
- ED50 [1, 7]: 180 mg/kg
- TD50 ([2]; in vivo): 1670 mg/kg
- T.I. (therapeutic index) (motor function, mouse): 9
- anticonvulsant activity in electro-shock convulsions (in words) [5]: claimed to be active

Structure (SMILES): NC(=O)CN(CC(N)=O)C1CCc2ccccc21 (stereo not shown) [N,N-di-(2-acetamido)-1-aminoindan]
- anticonvulsant activity (in words) (convulsions): not very effective
- therapeutic index (in words) (convulsions): don't seem endowed with a particularly favorable therapeutic index

Structure (SMILES): NC(=O)CNC1CCCc2ccccc21 (stereo not shown) [N-(2-acetamido)-1-aminotetralin]
- anticonvulsant activity (in words) (convulsions): not very effective
- therapeutic index (in words) (convulsions): don't seem endowed with a particularly favorable therapeutic index

Structure (SMILES): NC(=O)CNC1CCc2ccc(F)cc21 (stereo not shown) [N-(2-acetamido)-6-fluoro-1-aminoindan]
- anticonvulsant activity (in words) (convulsions): not very effective
- therapeutic index (in words) (convulsions): don't seem endowed with a particularly favorable therapeutic index

Structure (SMILES): CC(NC1CCc2ccccc21)C(N)=O (stereo not shown) [N-(2-propionamido)-1-aminoindan]
- anticonvulsant activity (in words) (convulsions): not very effective
- therapeutic index (in words) (convulsions): don't seem endowed with a particularly favorable therapeutic index

Structure (SMILES): NC(=O)CN[C@H]1CCc2ccccc21 [TEVA Comp. 2, (S)-2-(indanylamino)acetamide, reference compound]
- ED50 [1, 7]: 38 mg/kg
- TD50 ([2]; in vivo): 299 mg/kg
- T.I. (therapeutic index) (motor function, mouse): 8

Structure (SMILES): NC(=O)N1c2ccccc2C=Cc2ccccc21 [carbamazepine]
- therapeutic index (in words) [6]: smaller therapeutic indexes

Structure (SMILES): O=C1NC(=O)C(c2ccccc2)(c2ccccc2)N1 [phenytoin]
- therapeutic index (in words) [6]: smaller therapeutic indexes

— patent US6114391A, “α-amino acid amides, preparation thereof and the therapeutical use thereof” (priority 1996, dated 2000)
